Test results from BigSolDB 2.1.

COC(=O)N(OC)c1ccccc1COc1ccn(-c2ccc(Cl)cc2)n1
solubility (mole fraction)
Conditions	283.15 K	288.15 K	293.15 K	298.15 K	303.15 K	308.15 K
in cyclohexane	0.000942	0.00148	0.00217	0.00311	0.00448	0.00609
in ethanol	0.00458	0.00601	0.00866	0.0117	0.0184	0.0326
in isobutanol	0.00283	0.00377	0.00527	0.00758	0.0115	0.0186
in isopropanol	0.00248	0.00332	0.00481	0.00687	0.0102	0.0163
in n-butanol	0.00534	0.00663	0.00916	0.0132	0.0214	0.0343
